Values joined by “and” are separate entries in the source; they are usually repeats but may differ in a detail not shown here. Identical values can stand only once. Inconclusive results and toxic doses are left out.
System: BDF1 mice, P388 leukemia ip, median survival T/C
Assay: NCI In Vivo Anticancer Drug Screen. Data for tumor model P388 Leukemia (intraperitoneal) in B6D2F1 (BDF1) mice
Conditions: endpoint: median survival time, higher = longer survival
Method: The antitumor activity of compounds was measured in mice bearing transplantable tumors. Survival or tumor size were measured and the results are expressed as the measurement made in the treated group (T) divided by the measurement made in the vehicle treated control group (C). The tumor model used in this assay is P388 Leukemia (intraperitoneal) in B6D2F1 (BDF1) mice

[1] = dose: 50.0 mg/kg/injection, schedule: Q04DX003 (ip), vehicle: saline
[2] = dose: 25.0 mg/kg/injection, schedule: Q01DX009 (ip), vehicle: saline with Tween-80
[3] = dose: 12.5 mg/kg/injection, schedule: Q01DX009 (ip), vehicle: Klucel (hydroxypropylcellulose) (HPC)
[4] = dose: 50.0 mg/kg/injection, schedule: Q04DX003 (ip), vehicle: Klucel (hydroxypropylcellulose) (HPC)
[5] = dose: 200.0 mg/kg/injection, schedule: Q04DX003 (ip), vehicle: Klucel (hydroxypropylcellulose) (HPC)
[6] = dose: 50.0 mg/kg/injection, schedule: Q01DX009 (ip), vehicle: saline with Tween-80
[7] = dose: 100.0 mg/kg/injection, schedule: Q01DX009 (ip), vehicle: saline with Tween-80
[8] = dose: 200.0 mg/kg/injection, schedule: Q01DX009 (ip), vehicle: saline with Tween-80
[9] = dose: 100.0 mg/kg/injection, schedule: Q04DX003 (ip), vehicle: saline with Tween-80
[10] = dose: 200.0 mg/kg/injection, schedule: Q04DX003 (ip), vehicle: saline with Tween-80
[11] = dose: 400.0 mg/kg/injection, schedule: Q01DX009 (ip), vehicle: saline with Tween-80
[12] = dose: 75.0 mg/kg/injection, schedule: Q04DX003 (ip), vehicle: saline

Q: How did the T/C (dose: 13.2 mg/kg/injection, schedule: Q04DX003 (ip), vehicle: saline with Tween-80) turn out when O=C(Nc1ccc(C2=NCCCN2)cc1)c1ccc(NC(=O)c2ccc(C3=NCCCN3)cc2)cc1 was run?
A: 160 % of control and 168 % of control

Q: What about the T/C (dose: 20.0 mg/kg/injection, schedule: Q04DX003 (ip), vehicle: saline with Tween-80) of the same compound?
A: 181 % of control and 220 % of control

Q: And the T/C (dose: 30.0 mg/kg/injection, schedule: Q04DX003 (ip), vehicle: saline with Tween-80)?
A: 263 % of control and 300 % of control

Q: With Cc1nc2cnn(C)c2nc1C as the compound, how does the T/C [1] read?
A: 114 % of control

Q: What about the T/C (dose: 100.0 mg/kg/injection, schedule: Q04DX003 (ip), vehicle: saline) of the same compound?
A: 113 % of control

Q: What about the T/C (dose: 200.0 mg/kg/injection, schedule: Q04DX003 (ip), vehicle: saline) of the same compound?
A: 107 % of control

Q: What about the T/C (dose: 400.0 mg/kg/injection, schedule: Q04DX003 (ip), vehicle: saline) of the same compound?
A: 88 % of control

Q: For Clc1ccc(CNc2ncnc3[nH]ncc23)cc1, which T/C (dose: 3.13 mg/kg/injection, schedule: Q01DX009 (ip), vehicle: saline with Tween-80) is on record?
A: 91 % of control

Q: And the T/C (dose: 6.25 mg/kg/injection, schedule: Q01DX009 (ip), vehicle: saline with Tween-80)?
A: 87 % of control

Q: And the T/C (dose: 12.5 mg/kg/injection, schedule: Q01DX009 (ip), vehicle: saline with Tween-80)?
A: 89 % of control

Q: And the T/C [2]?
A: 105 % of control

Q: With CCCCCCCCCCCCCCCCCCOc1cccc(C(F)(F)F)c1 as the compound, how does the T/C (dose: 50.0 mg/kg/injection, schedule: Q01DX001 (ip), vehicle: saline with Tween-80) read?
A: 105 % of control

Q: And the T/C (dose: 100.0 mg/kg/injection, schedule: Q01DX001 (ip), vehicle: saline with Tween-80)?
A: 100 % of control

Q: What about the T/C (dose: 200.0 mg/kg/injection, schedule: Q01DX001 (ip), vehicle: saline with Tween-80) of the same compound?
A: 90 % of control

Q: Which results are given for O=[N+]([O-])c1cc([N+](=O)[O-])c(Cl)cc1Cl?
A: T/C (dose: 3.13 mg/kg/injection, schedule: Q01DX009 (ip), vehicle: Klucel (hydroxypropylcellulose) (HPC)): 104 % of control; T/C (dose: 6.25 mg/kg/injection, schedule: Q01DX009 (ip), vehicle: Klucel (hydroxypropylcellulose) (HPC)): 104 % of control; T/C [3]: 109 % of control; T/C [4]: 103 % of control; T/C [5]: 92 % of control

Q: What does the source list for O=C(N=Nc1c(O)[nH]c2c(Cl)cc(Cl)cc12)c1ccccc1O?
A: T/C [6]: 90 % of control; T/C [7]: 87 % of control; T/C [8]: 96 % of control

Q: What does the source list for COc1cccc2c1C(=O)c1c(O)c3c(c(O)c1C2=O)CC(O)(C(=O)CO)CC3OC1CC(N)C(O)C(C)O1 (configuration not stated)?
A: T/C (dose: 1.73 mg/kg/injection, schedule: Q01DX004 (ip), vehicle: water): 234 % of control; T/C (dose: 2.88 mg/kg/injection, schedule: Q01DX004 (ip), vehicle: water): 246 % of control; T/C (dose: 4.8 mg/kg/injection, schedule: Q01DX004 (ip), vehicle: water): 283 % of control; T/C (dose: 6.48 mg/kg/injection, schedule: Q04DX003 (ip), vehicle: saline): 158 % of control; T/C (dose: 10.8 mg/kg/injection, schedule: Q04DX003 (ip), vehicle: saline): 169 % of control; T/C (dose: 18.0 mg/kg/injection, schedule: Q04DX003 (ip), vehicle: saline): 187 % of control; T/C (dose: 30.0 mg/kg/injection, schedule: Q04DX003 (ip), vehicle: saline): 116 % of control

Q: For C=CCOC(=O)C1c2ccccc2Cc2ccccc21, which T/C [7] is on record?
A: 110 % of control

Q: And the T/C [9]?
A: 100 % of control

Q: And the T/C [8]?
A: 115 % of control

Q: What about the T/C [10] of the same compound?
A: 100 % of control

Q: What about the T/C [11] of the same compound?
A: 110 % of control

Q: And the T/C (dose: 400.0 mg/kg/injection, schedule: Q04DX003 (ip), vehicle: saline with Tween-80)?
A: 109 % of control

Q: What does the source list for CCCCCCCCOP(=O)(N1CC1)N1CC1?
A: T/C (dose: 12.5 mg/kg/injection, schedule: Q04DX003 (ip), vehicle: saline): 170 % of control; T/C (dose: 14.0 mg/kg/injection, schedule: Q04DX003 (ip), vehicle: saline): 150 % of control; T/C (dose: 21.0 mg/kg/injection, schedule: Q04DX003 (ip), vehicle: saline): 154 % of control; T/C (dose: 25.0 mg/kg/injection, schedule: Q01DX009 (ip), vehicle: saline): 183 % of control; T/C (dose: 25.0 mg/kg/injection, schedule: Q04DX003 (ip), vehicle: saline): 160 % of control; T/C (dose: 33.0 mg/kg/injection, schedule: Q01DX009 (ip), vehicle: saline): 211 % of control; T/C (dose: 33.0 mg/kg/injection, schedule: Q04DX003 (ip), vehicle: saline): 180 % of control and 222 % of control; T/C (dose: 50.0 mg/kg/injection, schedule: Q01DX009 (ip), vehicle: saline): 230 % of control and 250 % of control; T/C [1]: 242 % of control and 285 % of control; T/C (dose: 75.0 mg/kg/injection, schedule: Q01DX009 (ip), vehicle: saline): 111 % of control; T/C [12]: 285 % of control

Q: How did the T/C (dose: 100.0 mg/kg/injection, schedule: Q01DX001 (ip), vehicle: Klucel (hydroxypropylcellulose) (HPC)) turn out when Cc1ccc(N=NNc2ccc(C)cc2)cc1 was run?
A: 104 % of control

Q: And the T/C (dose: 200.0 mg/kg/injection, schedule: Q01DX001 (ip), vehicle: Klucel (hydroxypropylcellulose) (HPC))?
A: 104 % of control

Q: What about the T/C (dose: 400.0 mg/kg/injection, schedule: Q01DX001 (ip), vehicle: Klucel (hydroxypropylcellulose) (HPC)) of the same compound?
A: 112 % of control

Q: Which results are given for CN1CCN(CCCN2c3ccccc3Sc3ccc(C(F)(F)F)cc32)CC1?
A: T/C (dose: 6.25 mg/kg/injection, schedule: Q01DX009 (ip), vehicle: saline): 109 % of control; T/C (dose: 9.37 mg/kg/injection, schedule: Q01DX009 (ip), vehicle: saline): 118 % of control; T/C (dose: 9.37 mg/kg/injection, schedule: Q04DX003 (ip), vehicle: saline with Tween-80): 117 % of control; T/C (dose: 12.5 mg/kg/injection, schedule: Q01DX009 (ip), vehicle: saline): 109 % of control and 118 % of control; T/C (dose: 18.75 mg/kg/injection, schedule: Q04DX003 (ip), vehicle: saline with Tween-80): 121 % of control; T/C (dose: 44.0 mg/kg/injection, schedule: Q01DX009 (ip), vehicle: saline with Tween-80): 107 % of control; T/C (dose: 50.0 mg/kg/injection, schedule: Q04DX003 (ip), vehicle: saline with Tween-80): 113 % of control; T/C [12]: 115 % of control; T/C [9]: 150 % of control and 163 % of control

Q: With CCOC(=O)c1cc([N+](=O)[O-])c(C)s1 as the compound, how does the T/C (dose: 100.0 mg/kg/injection, schedule: Q01DX009 (sc), vehicle: olive oil, sesame oil, peanut oil) read?
A: 100 % of control

Q: What about the T/C (dose: 100.0 mg/kg/injection, schedule: Q04DX003 (sc), vehicle: olive oil, sesame oil, peanut oil) of the same compound?
A: 95 % of control

Q: What about the T/C (dose: 200.0 mg/kg/injection, schedule: Q01DX009 (sc), vehicle: olive oil, sesame oil, peanut oil) of the same compound?
A: 91 % of control

Q: And the T/C (dose: 200.0 mg/kg/injection, schedule: Q04DX003 (sc), vehicle: olive oil, sesame oil, peanut oil)?
A: 95 % of control

Q: And the T/C (dose: 400.0 mg/kg/injection, schedule: Q01DX009 (sc), vehicle: olive oil, sesame oil, peanut oil)?
A: 100 % of control

Q: What about the T/C (dose: 400.0 mg/kg/injection, schedule: Q04DX003 (sc), vehicle: olive oil, sesame oil, peanut oil) of the same compound?
A: 100 % of control

Q: C[C@]12CC[C@@H]3c4ccc(O)cc4CC[C@H]3[C@@H]1C[C@H](O)C2 was tested. Which T/C (dose: 100.0 mg/kg/injection, schedule: Q01DX009 (ip), vehicle: Klucel (hydroxypropylcellulose) (HPC)) did it give?
A: 100 % of control

Q: And the T/C (dose: 100.0 mg/kg/injection, schedule: Q04DX003 (ip), vehicle: Klucel (hydroxypropylcellulose) (HPC))?
A: 100 % of control

Q: What about the T/C (dose: 200.0 mg/kg/injection, schedule: Q01DX009 (ip), vehicle: Klucel (hydroxypropylcellulose) (HPC)) of the same compound?
A: 95 % of control

Q: What about the T/C [5] of the same compound?
A: 100 % of control

Q: What about the T/C (dose: 400.0 mg/kg/injection, schedule: Q01DX009 (ip), vehicle: Klucel (hydroxypropylcellulose) (HPC)) of the same compound?
A: 112 % of control

Q: What about the T/C (dose: 400.0 mg/kg/injection, schedule: Q04DX003 (ip), vehicle: Klucel (hydroxypropylcellulose) (HPC)) of the same compound?
A: 91 % of control

Q: With C=C(C)c1c2ccccc2cc2cccc(Sc3ccccc3)c12 as the compound, how does the T/C [7] read?
A: 100 % of control

Q: What about the T/C [8] of the same compound?
A: 95 % of control

Q: What about the T/C [11] of the same compound?
A: 100 % of control

Q: For CCN1CSC(=S)N(CC)C1, which T/C [3] is on record?
A: 110 % of control

Q: What about the T/C (dose: 25.0 mg/kg/injection, schedule: Q01DX009 (ip), vehicle: Klucel (hydroxypropylcellulose) (HPC)) of the same compound?
A: 110 % of control

Q: And the T/C [2]?
A: 109 % of control

Q: And the T/C (dose: 25.0 mg/kg/injection, schedule: Q04DX003 (ip), vehicle: Klucel (hydroxypropylcellulose) (HPC))?
A: 95 % of control

Q: And the T/C (dose: 37.5 mg/kg/injection, schedule: Q01DX009 (ip), vehicle: saline with Tween-80)?
A: 109 % of control

Q: And the T/C (dose: 50.0 mg/kg/injection, schedule: Q01DX009 (ip), vehicle: Klucel (hydroxypropylcellulose) (HPC))?
A: 110 % of control

Q: What about the T/C [6] of the same compound?
A: 109 % of control

Q: And the T/C [4]?
A: 87 % of control

Q: And the T/C (dose: 75.0 mg/kg/injection, schedule: Q01DX009 (ip), vehicle: saline with Tween-80)?
A: 119 % of control

Q: And the T/C [7]?
A: 122 % of control

Q: For O=S(=O)(CCBr)CCBr, which T/C [6] is on record?
A: 100 % of control

Q: What about the T/C [7] of the same compound?
A: 104 % of control

Q: And the T/C [9]?
A: 100 % of control

Q: And the T/C [10]?
A: 100 % of control
